The target of this experiment is human serum albumin (HSA) (Homo sapiens, UniProt P02768). The experiment can be described thus: Circular dichroism spectroscopy of HSA, secondary structure. Further details: purchased Sigma-Aldrich Chemie GmbH. The note with it: for Change in % α-helix, (1:5) minus (1:0) / reduction in the percentage of α-helix: HSA. How it is done:
When the small molecules interact with plasma proteins, changes in circular dichroism spectra are observed. Specific secondary structures such as α-helix or β-sheet have a characteristic band on the spectrum. For the first structure, two negative peaks near 209 and 220 nm are observed, while for the β-sheet, the negative band around 215 nm is present.
Circular dichroism (CD) spectra were measured on the Jasco J-1500 magnetic circular dichroism spectrometer (JASCO International CO., Tokyo, Japan) at room temperature with a 10 mm path length. […] The spectra were measured in the range of 205–250 nm at a scan rate speed of 50 nm/min, with a response time of 1 s. […] They were respectively added into 3 mL of protein solution successive portions of the solutions of the analyzed compounds. The analysis of the obtained results was performed using the CD Multivariate Calibration Creation and CD Multivariate SSE programs (JASCO International CO., Tokyo, Japan). Protein concentrations were converted here for mean residue molar concentrations.
A general note: CD spectra are sensitive to the conformation of chiral molecules.

Sequence of human serum albumin (HSA) (P02768 25-609): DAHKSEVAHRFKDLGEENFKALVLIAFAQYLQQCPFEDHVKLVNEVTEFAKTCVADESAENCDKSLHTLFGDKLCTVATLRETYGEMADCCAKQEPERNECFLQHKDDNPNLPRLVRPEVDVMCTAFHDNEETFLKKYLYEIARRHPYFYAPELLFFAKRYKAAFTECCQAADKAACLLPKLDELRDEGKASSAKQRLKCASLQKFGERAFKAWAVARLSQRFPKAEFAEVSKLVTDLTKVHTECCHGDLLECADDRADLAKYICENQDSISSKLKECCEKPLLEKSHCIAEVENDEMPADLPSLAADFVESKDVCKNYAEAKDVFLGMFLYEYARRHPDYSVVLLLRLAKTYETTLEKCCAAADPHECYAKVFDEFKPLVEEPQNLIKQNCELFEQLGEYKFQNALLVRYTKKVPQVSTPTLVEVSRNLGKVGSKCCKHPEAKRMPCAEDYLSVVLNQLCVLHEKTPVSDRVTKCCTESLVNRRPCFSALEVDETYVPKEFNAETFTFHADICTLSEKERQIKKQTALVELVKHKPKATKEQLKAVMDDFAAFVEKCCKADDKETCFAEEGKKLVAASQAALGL

On to `Cc1c2c(OCC(=O)N/N=C/c3ccccc3)nn(C)c(=O)c2c(C)n1-c1cccc(Cl)c1` [Compound 5c, N-[(Z/E)-benzylideneamino]-2-[6-(3-chlorophenyl)-3,5,7-trimethyl-4-oxo-pyrrolo[3,4-d]pyridazin-1-yl]oxyacetamide], for which the “Change in % α-helix, (1:5) minus (1:0)” value is −1.6% and the “reduction in the percentage of α-helix” value stood at 1.6%. Further, for the setting “HSA:compound molar ratio 1:0.5”, the “% Other” value amounted to 19.6%, the “% α-Helix” value amounted to 68.4%, the “% β-Sheet” value is on record as 2.9% and the “% β-Turn” value came to 9.1%. For the setting “HSA:compound molar ratio 1:1”, the “% Other” value stood at 20.3%, the “% α-Helix” value is listed as 68.0%, the “% β-Sheet” value came to 2.5% and the “% β-Turn” value is 9.2%. For the setting “HSA:compound molar ratio 1:2”, the “% Other” value is reported as 19.8%, the “% α-Helix” value is on record as 67.8%, the “% β-Sheet” value stood at 3.2% and the “% β-Turn” value is recorded as 9.2%. For the same molecule, where the note is “HSA:compound molar ratio 1:3”, the “% Other” value is recorded as 19.7%, the “% α-Helix” value turned out to be 67.8%, the “% β-Sheet” value came to 3.3% and the “% β-Turn” value came to 9.1%. Under “HSA:compound molar ratio 1:5”, the “% Other” value turned out to be 20.0%, the “% α-Helix” value is reported as 67.3%, the “% β-Sheet” value came out at 3.5% and the “% β-Turn” value is recorded as 9.2%.
For `CCCCn1c(C)c2c(OCC(=O)N/N=C/c3ccccc3)nn(C)c(=O)c2c1C` [Compound 5a, N-[(Z/E)-benzylideneamino]-2-(6-butyl-3,5,7-trimethyl-4-oxo-pyrrolo[3,4-d]pyridazin-1-yl)oxy-acetamide], the “Change in % α-helix, (1:5) minus (1:0)” value is listed as −2.0%. Also, under “HSA:compound molar ratio 1:0.5”, the “% Other” value is 20.7%, the “% α-Helix” value is 67.3%, the “% β-Sheet” value stood at 2.8% and the “% β-Turn” value is listed as 9.2%. Besides, under “HSA:compound molar ratio 1:1”, the “% Other” value turned out to be 20.9%, the “% α-Helix” value was found to be 66.9%, the “% β-Sheet” value is given as 2.8% and the “% β-Turn” value is on record as 9.3%. Moreover, for the setting “HSA:compound molar ratio 1:2”, the “% Other” value is recorded as 21.5%, the “% α-Helix” value worked out at 66.3%, the “% β-Sheet” value worked out at 2.7% and the “% β-Turn” value is 9.4%. In addition, under “HSA:compound molar ratio 1:3”, the “% Other” value is recorded as 21.6%, the “% α-Helix” value came to 66.2%, the “% β-Sheet” value stood at 2.8% and the “% β-Turn” value is recorded as 9.5%. Moreover, where the note is “HSA:compound molar ratio 1:5”, the “% Other” value came to 20.3%, the “% α-Helix” value is listed as 66.1%, the “% β-Sheet” value was determined as 4.3% and the “% β-Turn” value turned out to be 9.3%.
As to `Cc1c2c(OCC(=O)N/N=C/c3ccccc3)nn(C)c(=O)c2c(C)n1-c1ccccc1` [Compound 5b, N-[(Z/E)-benzylideneamino]-2-(3,5,7-trimethyl-4-oxo-6-phenyl-pyrrolo[3,4-d]pyridazin-1-yl)oxy-acetamide], the “Change in % α-helix, (1:5) minus (1:0)” value is reported as −2.4% and the “reduction in the percentage of α-helix” value stood at 2.4%. For the same molecule, for the setting “HSA:compound molar ratio 1:0.5”, the “% Other” value amounted to 20.9%, the “% α-Helix” value is listed as 67.7%, the “% β-Sheet” value is recorded as 2.2% and the “% β-Turn” value is recorded as 9.3%. Further, where the note is “HSA:compound molar ratio 1:1”, the “% Other” value was determined as 21.0%, the “% α-Helix” value is reported as 67.1%, the “% β-Sheet” value amounted to 2.5% and the “% β-Turn” value is 9.3%. Under “HSA:compound molar ratio 1:2”, the “% Other” value is on record as 20.6%, the “% α-Helix” value turned out to be 66.9%, the “% β-Sheet” value is on record as 3.2% and the “% β-Turn” value amounted to 9.3%. For the same molecule, under “HSA:compound molar ratio 1:3”, the “% Other” value worked out at 20.5%, the “% α-Helix” value is on record as 66.6%, the “% β-Sheet” value is recorded as 3.7% and the “% β-Turn” value is 9.3%. In addition, under “HSA:compound molar ratio 1:5”, the “% Other” value is reported as 20.2%, the “% α-Helix” value came out at 66.3%, the “% β-Sheet” value is listed as 4.3% and the “% β-Turn” value worked out at 9.2%.
